Results published in US7314959B2, “Amino thiol compounds and compositions for use in conjunction with cancer therapy” (Wisconsin Alumni Research Foundation, priority 2003, dated 2008).
Entries after “also recorded” stand apart in the source; their conditions may differ.

Key:
[1] = system: hamster cheek pouch mucosa; assay: Radiation-induced mucositis, hamster cheek pouch model; format: in vivo; details: 50 mM or 500 mM topical for 30 min before 30 Gy (17.5 min) irradiation
Source text: The model for radiation-induced oral mucositis was developed for the purpose of screening and identifying effective polyamines and aminothiols useful for treatment. The model used in this example was derived from the oral mucositis model described by Alvarez et al. (Clin. Cancer Research 9:3454-3461, 2003). Male golden Syrian hamsters (70-95 gram, Charles River Laboratories, Wilmington, Mass.) were used. Animals were individually numbered, housed in small groups and fed and watered ad libitum. Hamsters were anesthetized with sodium pentobarbital (80 mg/kg body weight, Sigma, St. Louis, Mo.). The left buccal cheek pouch was everted and secured. A protective lead shield covered the remainder of the animal. Subsequently, the cheek pouch was irradiated with a single dose of radiation from 20 to 40 Gy delivered to the targeted mucosa in the ^137Cs irradiator. Starting 10 to 12 days after radiation, the severity of mucositis was assessed every two days. The severity level of mucositis was evaluated using a modified mucositis scoring system described by Sonis S. T. et al. (Oral Oncology 36:373-381, 2000)
The scoring system was as follows: • 0=Pouch completely healthy. No erythema or vasodilatation. • 1=Erythema. • 2=Severe erythema, vasodilatation • 3=Severe erythema/vasodilatation. Superficial erosion on radiated pouch surface area. • 4=Formation of ulcers in one or more places. […]

p21 in human fibroblasts = assay: p21 western blot in human skin fibroblasts; format: cell-based; details: IC70 concentration of PrC-210 (4100 μM); cysteamine 600 μM; 30 hour exposure
Experimental: Methods (Cell cycle and p21 western): The cell culture experiments were done using primary, human skin fibroblasts, one strain of which (BJ cells) was obtained from ATCC (American Type Culture Collection). […] For flow cytometry and p21 experiments, cells were plated at 0.5×10^6 cells/150 mm plate, and 24 hr later, drug molecules (4100 μM PrC-210, 600 μM cysteamine, 205 μM cysteamine analog, 0.4 μg/ml colcemid) were added to medium. […] (Cancer Research. 61(21):7754-62, 2001). As per the cited reference, cells were fixed, treated with RNAse, and stained with propidium iodide for flow cytometry, or cells were extracted, proteins electrophoresed, and probed with anti-p21 antibody (#SXM-30) for western blot analysis.

For `CNCC(CS)CNC` [PrC-210, 3-methylamino-2-methylaminomethyl-propane-1-thiol], the “effect on radiation-induced erythema, swelling and inflexibility of cheek pouch” value [1] was “significant decrease in the erythema, swelling and inflexibility” and the p21 expression (p21 in human fibroblasts) was “induces expression of the cell cycle regulator, p21; also recorded: marked induction of p21 expression”.
